Experimental data from patent US20240165209A1, “PLACENTAL ALKALINE PHOSPHATASE FOR REDUCING THE LOSS OF RED BLOOD CELLS, WHITE BLOOD CELLS, AND PLATELETS IN CHEMOTHERAPY TREATED CANCER PATIENTS” (ZOLTAN LABORATORIES, LLC, priority 2021, published 2024).

Tests used:
[1] = test system: bone marrow MSCs; assay: DNA synthesis ([3H]thymidine incorporation) in MSCs; assay type: cell-based, human; settings: 20 hours, no PLAP
Description: For the experiment, bone marrow aspirates were taken from normal human adult donors after informed consent. For the preparation of bone marrow MSCs, essentially a widely used technique was used as described earlier by others [Pittenger, M. F., Mackay, A. M., Beck, S. C., et al. (1999) Multilineage potential of adult human mesenchymal stem cells. Science 284, 143-147]. Briefly, nucleated cells were isolated with a pre-prepared commercial density gradient (Lymphoprep, Nycomed, Pharma, Oslo, Norway) and re-suspended in Dulbecco's modified Eagle's medium (DMEM) (GIBCO, Grand Island, NY) supplemented with 10% fetal calf serum (FCS), 50 U/ml of penicillin, and 50 μg/ml of streptomycin (GIBCO). All nucleated cells were plated in 25-cm^2 flasks (BD Falcon, Bedford, MA) at 37° C. in humidified atmosphere containing 5% CO2. After 24 hours, non-adherent cells were removed and cryopreserved in liquid nitrogen until use. The remaining adherent cells were thoroughly washed with Hanks balanced salt solution (HBSS) (GIBCO). Fresh complete culture medium was added and replaced every 3 or 4 days (twice a week). When cells grew to about 80% confluence, they were suspended and harvested by incubating with a ready-made solution containing 0.25% trypsin and 1 mM EDTA (Sigma-Aldrich, St. Louis, MO) for 5 minutes at 37° C.; this cell suspension is designated as passage 1. These cells were further expanded with 1:3-1:5 splitting in 175-cm^2 flasks (BD Falcon). For the determination of DNA synthesis, cells were divided into 12-well plates in the complete medium and let the cells grow to about 60% confluence. After changing the spent medium for fresh complete medium (i.e., containing 10% fetal calf serum), cells were treated for 20 hours with 20-100 μM ATP and/or 200 nM PLAP as well as 50-200 μM Cyp in the absence or presence of 200 nM PLAP. For labeling newly formed DNA, cells received 1,130,000 d.p.m. [^3H] thymidine for the last 4 hours of the treatment period. DNA synthesis was determined as described earlier [She, Q.-B., Mukherjee, J. J., Huang, J.-S., Crilly, K. S. and Kiss, Z. (2000) Growth factor-like effects of placental alkaline phosphatase in human fetus and mouse embryo fibroblasts. FEBS Lett. 469, 163-167]. The data is expressed as d.p.m. [^3H] thymidine incorporated into DNA/well (n=3).

[2] = test system: blood cells (RBCs, WBCs, platelets) of T47D tumor bearing mice; assay: Experiment 1: blood cell counts in Cyp-treated T47D tumor bearing mice, last sample day 9; assay type: in vivo, mouse; settings: Cyp 120 mg/kg i.p. daily x6, PLAP 7.5 mg/kg s.c. days 0, 3, 6
Procedure: In the two experiments performed, first-generation hybrid BDF1 (C57BL/6 female×DBA/2 male) 10 weeks old adult female mice bearing T47D tumors (2.6-3.3 cm 3 volume) were used.
In the first group, mice received no treatment. In the second and third groups, mice were administered 120 mg/kg of cyclophosphamide (Cyp) intraperitoneally once a day for 6 consecutive days administered between 10-10.30 AM. In a third group, mice were also administered 7.5 mg/kg of PLAP subcutaneously on days 0, 3 and 6 between 9-9.30 AM. In each group, mice were kept on standard diet (˜15% fat, 65% carbohydrate, and 20% proteins) purchased from Charles River VRFI. Both PLAP (for the 3rd group) and Cyp were dissolved in physiological (0.9%) saline and injected in 50 μl volume. […] The data shown is the average of 6 independent determinations ±S.D.

[3] = test system: granulocyte-macrophage colony-forming units (CFU-GM); assay: Granulocyte-macrophage colony-forming units (CFU-GM), semisolid colony-forming cell assay, Cyp treated T47D tumor bearing mice; assay type: in vivo, mouse; settings: for CFU-GM/10^5 nucleated BM cells: Cyp 120 mg/kg i.p. daily x6, PLAP 7.5 mg/kg s.c. days 0, 2, 4, 6; for CFU-GM per femur: calculated: nucleated cells in the femur x CFU-GM
Procedure: Again, first-generation hybrid BDF1 (C57BL/6 female×DBA/2 male) 10 weeks old adult female mice bearing T47D tumors (2.6-3.3 cm^3) were used. In the first group, mice received no treatment. In the second and third groups, mice were administered 120 mg/kg of Cyp intraperitoneally once a day for 6 consecutive days. In a third group, mice were also administered 7.5 mg/kg of PALP subcutaneously on days 0, 2, 4 and 6. On the days indicated in TABLE 4, the animals were killed, then the bone marrow was flushed from the femurs with Iscove's modified Dulbecco's medium (Gibco BRL, Gaithersburg, MD, USA). This was followed by standard erythrocyte lysis and then by counting the number of nucleated bone marrow (BM) cells per femur using a hemocytometer.
To measure the formation of the granulocyte-macrophage colony-forming units (CFU-GM), a semisolid colony-forming cell assay was used. Equal numbers of nucleated bone marrow cells (isolated on days as indicated above) were plated in 35-mm Petri dishes (Costar, Cambridge, MA, USA) in Iscove's modified Dulbecco's medium supplemented with 1% methylcellulose, 30% horse serum (Gibco), 10% WEHI-3B conditioned medium as a source of growth factors, 4 mM L-glutamine, 0.25 mM α-thioglycerol (Gibco), 1% deionized bovine serum albumin (Sigma), and antibiotics (Gibco). Cells were cultured at 37° C. in 5% CO2/95% air atmosphere. CFU-GM was counted on day 9. Three parallel plates were used for each 3 animals (9 plates for one number). Colonies containing at least 50 cells were counted which is a generally accepted value in the literature. In TABLE 4, “CFU-GM per femur” is a calculated value derived from multiplying the number of nucleated cells in the femur with the number of CFU-GM; this number gives the number of CFU-GM in one femur. Each value is expressed as the mean±standard deviation of 9 plates (derived from 3 animals).

**Q.** O.O=P1(N(CCCl)CCCl)NCCCO1 (stereo not shown) [Cyp, 2-[Bis (2-chloroethyl)amino] tetrahydro-2H-1,3,2-oxazaphosphorine 2-oxide monohydrate] was tested. Which “d.p.m. [^3H] thymidine incorporated into DNA/well” value ([1]; Cyp 50 μM) did it give?
**A.** 51,684 ± 2.772 d.p.m.

**Q.** And the “d.p.m. [^3H] thymidine incorporated into DNA/well” value ([1]; Cyp 200 μM)?
**A.** 32,536 ± 3,280 d.p.m.

**Q.** What about the Platelets ([2]; day 0) of the same compound?
**A.** 1,114 ± 111 ×10^−3/μl

**Q.** And the RBCs ([2]; day 0)?
**A.** 9.51 ± 1.09 ×10^−6/μl

**Q.** What about the WBCs ([2]; day 0) of the same compound?
**A.** 7.92 ± 0.72 ×10^−3/μl

**Q.** What about the Platelets ([2]; day 3) of the same compound?
**A.** 704 ± 98 ×10^−3/μl

**Q.** What about the RBCs ([2]; day 3) of the same compound?
**A.** 7.28 ± 1.29 ×10^−6/μl

**Q.** What about the WBCs ([2]; day 3) of the same compound?
**A.** 4.22 ± 0.85 ×10^−3/μl

**Q.** And the Platelets ([2]; day 6)?
**A.** 404 ± 139 ×10^−3/μl

**Q.** And the RBCs ([2]; day 6)?
**A.** 4.94 ± 0.63 ×10^−6/μl

**Q.** And the WBCs ([2]; day 6)?
**A.** 2.73 ± 0.53 ×10^−3/μl

**Q.** What about the Platelets ([2]; day 9) of the same compound?
**A.** 687 ± 114 ×10^−3/μl

**Q.** And the RBCs ([2]; day 9)?
**A.** 6.26 ± 0.71 ×10^−6/μl

**Q.** And the WBCs ([2]; day 9)?
**A.** 5.72 ± 0.49 ×10^−3/μl

**Q.** What about the “CFU-GM/10^5 nucleated BM cells” value ([3]; BM isolated day 0) of the same compound?
**A.** 78.1 ± 6.1

**Q.** And the “CFU-GM/10^5 nucleated BM cells” value ([3]; BM isolated day 3)?
**A.** 34.5 ± 7.2

**Q.** And the “CFU-GM/10^5 nucleated BM cells” value ([3]; BM isolated day 6)?
**A.** 25.8 ± 4.4

**Q.** What about the “CFU-GM/10^5 nucleated BM cells” value ([3]; BM isolated day 9) of the same compound?
**A.** 98.5 ± 8.0

**Q.** What about the CFU-GM per femur ([3]; day 0) of the same compound?
**A.** 1,101

**Q.** What about the CFU-GM per femur ([3]; day 3) of the same compound?
**A.** 321

**Q.** And the CFU-GM per femur ([3]; day 6)?
**A.** 80

**Q.** What about the CFU-GM per femur ([3]; day 9) of the same compound?
**A.** 482
